In this test the test system is acustic trauma and threshold levels of rats. Description: Acoustic trauma (AT) in rats, hearing thresholds by auditory brainstem responses (ABR). It counts as in vivo, female Sprague Dawley Rats. The note with it: 10 mg/kg p.o. twice daily. Here is the method: All animal experiments were performed due to the “German Law for the Protection of Laboratory animals” and were conducted due to the approved guidelines for Animal Health and Welfare. Experiments were performed with female Sprague Dawley Rats with a body weight between 300-400 g. For induction of acoustic trauma (AT) animals were kept under anesthezia (Ketamine, Xylazin, Rompun i.p. injection) and exposed to band noise or pure tones using a calibrated loudspeaker inside a reverberating chamber. The sound consists of a continuous 10 kHz pure-tone presented at 115 dB SPL. All acoustic stimuli were calibrated at the head level of the animal. Rats were treated with either Vardenafil [10 mg/kg/ p.o. dissolved in Ethanol/Solutol/Water (10/40/50) with an application volume of 5 ml/kg] or Placebo [Ethanol/Solutol/Water (10/40/50) with an application volume of 5 ml/kg] twice daily. The first treatment with Vardenafil or Placebo was i.e. 1 h prior to AT. The development and progression/remission of hearing impairment was detected by measuring the hearing thresholds by recordings of auditory brainstem responses (ABR). The threshold was determined by the lowest sound pressure that produced ARBs distinct from noise level. Threshold level analysis was performed prior to the acustic trauma (AT) (Measurement A in table 1), 3-5 hours post AT (Measurement B in table 1), once daily, from day 1 to day 7 post AT (Measurement C to I in table 1) and finally 3 weeks post AT (Measurement J in table 1).

We go through one compound from patent US20100184769A1, “PDE INHIBITORS FOR THE TREATMENT OF HEARING IMPAIRMENT” (BAYER SCHERING PHARMA AKTIENGESELLSCHAFT, priority 2007, published 2010).

With `CCCc1nc(C)c2c(=O)[nH]c(-c3cc(S(=O)(=O)N4CCN(CC)CC4)ccc3OCC)nn12` [Vardenafil, 2-(2-Ethoxy-5-(4-ethylpiperazin-1-yl-1-sulfonyl)phenyl)-5-methyl-7-propyl-3H-imidazo (5,1-f) (1,2,4)triazin-4-one], the “Hearing Threshold, Measurement B” value (3-5 hours post AT, first treatment 1 h prior to AT) stood at 38.6 dB SPL. Also, the “Hearing Threshold, Measurement J” value (3 weeks post AT) was 8.1 dB SPL. Besides, for the setting “day 1 post AT”, the “Hearing Threshold, Measurement C” value came out at 28.3 dB SPL. Moreover, the “Hearing Threshold, Measurement D” value (day 2 post AT) is 19.5 dB SPL. Also, the “Hearing Threshold, Measurement E” value (day 3 post AT) was 16.5 dB SPL. For the same compound, where the note is “day 4 post AT”, the “Hearing Threshold, Measurement F” value is on record as 14.3 dB SPL. Besides, the “Hearing Threshold, Measurement G” value (day 5 post AT) came to 12.4 dB SPL. Further, the “Hearing Threshold, Measurement H” value (day 6 post AT) was 11.2 dB SPL. The “Hearing Threshold, Measurement I” value (day 7 post AT) came to 10.9 dB SPL. Besides, under “prior to acustic trauma (AT)”, the “Hearing Threshold, Measurement A” value is recorded as 5.9 dB SPL.
